What all share (experiment): NCI anticancer screen, dose series, 48 h
Assay [1] deals with K562.
Assay [2] relates to SF-295.
In assay [3] the test system is NCI-H522.
The test system of assay [4] is LOX IMVI.
Assay [5] concerns A549.
Assay [6] relates to TK-10.
The subject of assay [7] is T47D.
In assay [8] the test system is MDA-MB-435.
In assay [9] the test system is SW-620.
Assay [10] relates to M14.
Assay [11] has as its system A498.
Assay [12] relates to RPMI-8226.
Assay [13] has as its system MDA-MB-231.
The subject of assay [14] is UACC-257.
In assay [15] the test system is DU-145.
Assay [16] deals with SF-268.
Assay [17] has as its system SNB-75.
In assay [18] the test system is HOP-62.
Assay [19] has as its system SK-MEL-5.

The structures appear in SMILES notation.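 Cultured in 96-well plates, cells were exposed to test compound for 48 hours across five concentrations. GI50 marks 50% less growth.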 The source made the active and inactive calls. Rule as the data show it: active = GI50 up to about 1.1 µM and inactive = higher.

As to `O=C(CSC1=NCCN1)c1ccccc1`, the GI50 in assay [1], in assay [2], in assay [3], in assay [4], in assay [5] and in assay [6] was > 100 µM (inactive) each time. Moreover, the GI50 in assay [7], in assay [8], in [9], in assay [10], in [11] and in [12] was > 100 µM (inactive) each time. The GI50 in assay [13], in assay [14], in assay [15], in assay [16], in [17] and in [18] was > 100 µM (inactive) throughout. The GI50 in assay [19] is > 100 µM (inactive).

`Cc1ccc([N+](=O)[O-])cc1S(=O)(=O)Nc1ccc(C2=NOC(c3ccco3)C2)cc1` (stereo not drawn): the GI50 in assay [1] is 4.7 µM (inactive); in assay [2], 14.1 µM (inactive); in [3], 10.7 µM (inactive); in assay [4], 17.3 µM (inactive); in [5], 21.9 µM (inactive); in [6] it was 31.2 µM (inactive). For the same molecule, the GI50 was 22.8 µM (inactive) in assay [7]; 3.03 µM (inactive) in assay [8]; 18.7 µM (inactive) in assay [9]; 15.3 µM (inactive) in [10]; 15.1 µM (inactive) in [11]; 18.9 µM (inactive) in assay [12]. In addition, the GI50 was 17.1 µM (inactive) in assay [13]; 17.6 µM (inactive) in assay [14]; 20.2 µM (inactive) in assay [15]; 26.1 µM (inactive) in [16]; 18.7 µM (inactive) in assay [17]; 12.6 µM (inactive) in assay [18]. For the same molecule, the GI50 in assay [19] is 13.2 µM (inactive).

On to `CC(NC(=O)NC(C)(C)C)NC(=O)C(N)CC(=O)O` (stereo not drawn), for which the GI50 in [1], in assay [2], in assay [3], in assay [4], in assay [5] and in [6] was > 100 µM (inactive) in each case. Also, the GI50 in assay [7], in [8], in assay [9], in [10], in assay [11] and in assay [12] was > 100 µM (inactive) in each case. The GI50 in assay [13], in assay [14], in assay [15], in [16], in assay [17] and in assay [18] was > 100 µM (inactive) each time. In addition, the GI50 in assay [19] was > 100 µM (inactive).

On to `COc1cc2cc(C(=O)Nc3cc4n(n3)-c3ccccc3C4)[nH]c2c(OC)c1OC`, for which the GI50 in assay [1] is 3.36 µM (inactive); in [2], 3.4 µM (inactive); in assay [3] it was 1.08 µM (active); in assay [4], 4.68 µM (inactive); in assay [5], 1.81 µM (inactive); in [6], 1.85 µM (inactive). Also, the GI50 in assay [7] was 0.883 µM (active); in assay [8], 1.44 µM (inactive); in assay [9] it was 7.08 µM (inactive); in [10] it was 2 µM (inactive); in assay [11], 23.4 µM (inactive); in assay [12], 1.06 µM (active). For the same molecule, the GI50 is 8.04 µM (inactive) in [13]; 2.9 µM (inactive) in assay [14]; 6.73 µM (inactive) in assay [15]; 6.19 µM (inactive) in assay [16]; 5.83 µM (inactive) in [17]; 2 µM (inactive) in assay [18]. Also, the GI50 in assay [19] was 1.41 µM (inactive).

On to `O=C(CCN1CC2CCC(CC2)C1)c1cccs1`, for which the GI50 in assay [1] is 17.5 µM (inactive); in assay [2], > 100 µM (inactive); in assay [3] it was 17.4 µM (inactive); in [4] it was 10.7 µM (inactive); in [5], 23.9 µM (inactive); in assay [6], 8.73 µM (inactive). In addition, the GI50 is 6.92 µM (inactive) in [7]; 20.8 µM (inactive) in assay [8]; 2.79 µM (inactive) in assay [9]; 16.4 µM (inactive) in assay [10]; > 87.7 µM (inactive) in assay [11]; 1.85 µM (inactive) in assay [12]. The GI50 was 18.2 µM (inactive) in [13]; 16.1 µM (inactive) in [14]; 17.6 µM (inactive) in assay [15]; 21.2 µM (inactive) in [16]; 19.2 µM (inactive) in assay [17]; 19.3 µM (inactive) in [18]. Further, the GI50 in [19] is 40.1 µM (inactive).

For the molecule `COC(=O)c1n[nH]c(C)c1/N=N/N(C)CCC#N`, the GI50 was 15.3 µM (inactive) in [1]; 24.9 µM (inactive) in [2]; 10.5 µM (inactive) in [3]; 8.18 µM (inactive) in assay [4]; 16.1 µM (inactive) in assay [5]; 20.9 µM (inactive) in assay [6]. The GI50 in assay [7] is 14 µM (inactive); in assay [8], 59.8 µM (inactive); in assay [9], 14 µM (inactive); in assay [10] it was 30.8 µM (inactive); in assay [11], 76 µM (inactive); in assay [12], 10.2 µM (inactive). In addition, the GI50 in assay [13] is 24.8 µM (inactive); in assay [14], 50.7 µM (inactive); in assay [15], 15.1 µM (inactive); in assay [16], 15.1 µM (inactive); in assay [17], 13.4 µM (inactive); in assay [18], 18.8 µM (inactive). In addition, the GI50 in assay [19] is 26.9 µM (inactive).

For `O=C(O)C(CCc1ccccn1)c1ccccc1` (stereo not drawn), the GI50 in [1], in assay [2], in assay [3], in assay [4], in assay [5] and in assay [6] was > 100 µM (inactive) each time. Further, the GI50 in [7], in [8], in assay [9], in [10], in assay [11] and in assay [12] was > 100 µM (inactive) in each case. Moreover, the GI50 in assay [13], in assay [14], in [15], in [16], in assay [17] and in assay [18] was > 100 µM (inactive) in each case. For the same molecule, the GI50 in assay [19] was > 100 µM (inactive).

As to `Cc1cc(-c2nc3cc(F)c(F)cc3s2)ccc1N`, the GI50 in assay [1] is > 42.5 µM (inactive); in [2] it was > 48.2 µM (inactive); in [3] it was 48.6 µM (inactive); in assay [4], > 82.4 µM (inactive); in assay [5], > 55.5 µM (inactive); in [6], 0.0312 µM (active). For the same molecule, the GI50 is < 0.015 µM (active) in assay [7]; > 55.3 µM (inactive) in assay [8]; > 60.5 µM (inactive) in [9]; > 55.2 µM (inactive) in assay [10]; > 100 µM (inactive) in assay [11]; > 63.4 µM (inactive) in assay [12]. Also, the GI50 is > 100 µM (inactive) in assay [13]; > 73.1 µM (inactive) in assay [14]; > 67.6 µM (inactive) in assay [15]; > 100 µM (inactive) in [16]; 51.9 µM (inactive) in assay [17]; 39.7 µM (inactive) in [18]. In addition, the GI50 in assay [19] was 64 µM (inactive).

With `Cc1c(C(=O)NNc2ccccc2)n2c(S)nnc2c2ccccc12`, the GI50 is > 100 µM (inactive) in [1]; 54.6 µM (inactive) in assay [2]; > 100 µM (inactive) in assay [3]; > 100 µM (inactive) in assay [4]; > 100 µM (inactive) in [5]; > 100 µM (inactive) in assay [6]. The GI50 is 40.5 µM (inactive) in assay [7]; > 100 µM (inactive) in [8]; > 100 µM (inactive) in assay [9]; > 100 µM (inactive) in [10]; > 100 µM (inactive) in assay [11]; 58.2 µM (inactive) in assay [12]. Moreover, the GI50 in assay [13], in [14], in [15], in assay [16], in [17] and in assay [18] was > 100 µM (inactive) each time. Besides, in assay [19], the GI50 was > 100 µM (inactive).

Take `Nc1ccccc1CCCC(=O)O`: the GI50 in [1], in assay [2], in [3], in [4], in [5] and in assay [6] was > 100 µM (inactive) in each case. Further, the GI50 in assay [7], in assay [8], in [9], in assay [10], in assay [11] and in assay [12] was > 100 µM (inactive) throughout. The GI50 in assay [13], in assay [14], in assay [15], in assay [16], in [17] and in assay [18] was > 100 µM (inactive) throughout. Also, in [19], the GI50 was > 100 µM (inactive).

Turning to `COC(=O)CN(CC(=O)NCCCBr)C1CCCCC1N(CC(=O)OC)CC(=O)OC` (stereo not drawn), the GI50 in [1], in assay [2], in assay [3], in assay [4], in assay [5] and in [6] was > 100 µM (inactive) in each case. For the same molecule, the GI50 in assay [7], in assay [8], in assay [9], in assay [11], in [12] and in [13] was > 100 µM (inactive) throughout. The GI50 in [14] was > 100 µM (inactive); in assay [15], > 100 µM (inactive); in assay [16], > 100 µM (inactive); in [17] it was 19.1 µM (inactive); in assay [18] it was > 100 µM (inactive); in [19], > 100 µM (inactive).

The record behind these values is ChEMBL document CHEMBL1201862, “PubChem BioAssay data set” (2004).
